Patent US12637424B2, “Pharmaceutical salt of an arylpyrrole derivative” (SENTINEL ONCOLOGY LIMITED, priority 2020, dated 2026)
Where two headings read alike, the source gives them in different places.

Key:
[1] = test system: U87MG Human Glioblastoma Cancer Cell; assay: U87MG cell viability (SRB assay); format: cell-based; conditions: 72 hours, read-out: IC50 for inhibition of cell growth
Procedure: The following protocol was used to measure the effects of atropisomers A-1 and A-2 on U87MG cell viability. U87MG cells were grown in their recommended growth media/supplements (ATCC). Cells were seeded at a concentration of 5000 cells per well into 96 well plates overnight at 37° C., 5% CO2. Cells were treated with relevant concentrations of test compound for 72 hours. After 72 h incubation, viability was established using sulforhodamine B (SRB) colorimetric assay. Percentage viability was calculated against the mean of the DMSO treated control samples, and IC50 values for inhibition of cell growth were calculated using GraphPad Prism software by nonlinear regression (4 parameter logistic equation).

NCI-H1299 = assay: Cancer cell line panel proliferation (CellTiter-Glo); format: cell-based; conditions: NCI-H1299, Lung, 72 hours
Procedure: (§1) Screening against diverse cancer cell lines was performed to identify tumour types displaying sensitivity to atropisomers A-1 and A-2. A panel of 48 cancer-derived cell lines was screened in a high-throughput proliferation assay using dilutions of atropisomers A-1/A-2. Cell lines that were screened included those representing cancer of the pancreas, large intestine/colorectum, lung, brain and nerves, and lymphoma and leukaemia cell lines. Cell lines were treated with serial half-log dilutions of compound and assayed 72 hours later for proliferation using CellTiter-Glo Assay (Promega). IC50 values were calculated by fitting the dose-response data using a nonlinear regression model.

OCI-LY-19 = assay: as above; format: cell-based; conditions: OCI-LY-19, Blood/Lymphoma, 72 hours
Procedure: as §1

AsPC-1 = assay: as above; format: cell-based; conditions: AsPC-1, Pancreas, 72 hours
Procedure: as §1

JeKo-1 = assay: as above; format: cell-based; conditions: JeKo-1, Blood/Lymphoma, 72 hours
Procedure: as §1

SU-DHL-6 = assay: as above; format: cell-based; conditions: SU-DHL-6, Blood/Lymphoma, 72 hours
Procedure: as §1

D283 Med = assay: as above; format: cell-based; conditions: Brain&Nerves, 72 hours
Procedure: as §1

PLK4 (catalytic domain) = molecular target: T1, PLK4 (catalytic domain) (Homo sapiens, UniProt O00444); assay: DiscoverX KinomeScreen competition binding assay
T1 construct: purchased DiscoverX; host or cells: E. coli (BL21-derived, T7 phage display) or HEK-293
T1 sequence (O00444 12-265 limits assumed): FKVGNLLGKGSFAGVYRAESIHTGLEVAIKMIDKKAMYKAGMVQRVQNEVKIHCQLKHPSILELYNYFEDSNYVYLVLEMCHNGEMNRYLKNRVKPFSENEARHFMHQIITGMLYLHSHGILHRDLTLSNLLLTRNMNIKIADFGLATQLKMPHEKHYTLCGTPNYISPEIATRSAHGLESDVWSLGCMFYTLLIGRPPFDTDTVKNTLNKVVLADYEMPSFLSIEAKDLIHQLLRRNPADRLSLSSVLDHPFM
Procedure: (§2) This has been investigated by testing atropisomer A-2 for off-target activity against a panel of ninety-seven kinases distributed across the kinome at a concentration of 3 μM using the DiscoverX KinomeScreen assay. The DiscoverX KinomeScreen assay is a site-directed competition binding assay which measures the binding affinity of a compound to a kinase, by use of a solid supported control compound which can bind or capture the kinases in solution. In the absence of a kinase-inhibitor test compound, all of the kinase will bind to the solid support. If a kinase-inhibitor test compound is added to the assay mix, the amount of kinase binding to the solid support will be reduced, the extent of reduction being dependent on the potency of the test compound as a kinase inhibitor. […] For most assays, kinase-tagged T7 phage strains were grown in parallel in 24-well blocks in an E. coli host derived from the BL21 strain. E. coli were grown to log-phase and infected with T7 phage from a frozen stock (multiplicity of infection=0.4) and incubated with shaking at 32° C. until lysis (90-150 minutes). The lysates were centrifuged (6,000×g) and filtered (0.2 μm) to remove cell debris. The remaining kinases were produced in HEK-293 cells and subsequently tagged with DNA for qPCR detection. Streptavidin-coated magnetic beads were treated with biotinylated small molecule ligands for 30 minutes at room temperature to generate affinity resins for kinase assays. The liganded beads were blocked with excess biotin and washed with blocking buffer (SeaBlock (Pierce), 1% BSA, 0.05% Tween 20, 1 mM DTT) to remove unbound ligand and to reduce non-specific phage binding. […] Test compounds were prepared as 40× stocks in 100% DMSO and directly diluted into the assay. All reactions were performed in polypropylene 384-well plates in a final volume of 0.02 ml. […] The beads were then re-suspended in elution buffer (1×PBS, 0.05% Tween 20, 0.5 μM non-biotinylated affinity ligand) and incubated at room temperature with shaking for 30 minutes. The kinase concentration in the eluates was measured by qPCR. Compounds that bind the kinase active site and directly (sterically) or indirectly (allosterically) prevent kinase binding to the immobilized ligand, will reduce the amount of kinase captured on the solid support. […] The strength of binding of the test molecule to the kinase can be expressed as the percent control (% Ctrl) The compound(s) were screened at 3000 nM concentration, and results for primary screen binding interactions are reported as ‘% Ctrl’, where lower numbers indicate stronger hits in the matrix on the following page(s). [formula] • negative control=DMSO (100% Ctrl) • positive control=control compound (0% Ctrl)

PLK1 (catalytic domain) = molecular target: T2, PLK1 (catalytic domain) (Homo sapiens, UniProt P53350); assay: DiscoverX KinomeScreen competition binding assay
T2 construct: purchased DiscoverX; host or cells: E. coli (BL21-derived, T7 phage display) or HEK-293
T2 sequence (P53350 53-305 limits assumed): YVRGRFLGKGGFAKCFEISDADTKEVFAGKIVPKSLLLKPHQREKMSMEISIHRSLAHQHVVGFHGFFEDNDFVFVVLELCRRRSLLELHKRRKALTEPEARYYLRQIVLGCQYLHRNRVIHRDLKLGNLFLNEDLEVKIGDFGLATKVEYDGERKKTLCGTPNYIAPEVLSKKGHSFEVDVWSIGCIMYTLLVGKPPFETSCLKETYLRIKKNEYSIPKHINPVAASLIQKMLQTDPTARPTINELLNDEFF
Procedure: as §2

[2] = test system: U87-Luc cells intracerebrally implanted; assay: U87-Luc orthotopic xenograft model; format: in vivo, male athymic nude mice; conditions: oral 100 mg/kg on days 1, 4, 7, 10 and 13; Day 15
Procedure: U87-Luc cells were intracerebrally implanted into the brains of male athymic nude mice and tumour growth was monitored by bioluminescent signal. In the treatment group animals were given an oral dose of 100 mg/kg of atropisomer A-2 on days 1, 4, 7, 10 and 13. The control group animals were given vehicle only.

[3] = Chiral stability (interconversion) of isolated atropisomers in ethanol; format: physicochemical; conditions: for % ee of sample @ 40° C. / % ee sample @ 80° C.: ethanol; for interconversion / racemization of atropisomers: heating for 10 days at 40° C. and 80° C.
Procedure: To assess the interconversion of atropisomer A-1 and atropisomer A-2, chiral stability was monitored at 40° C. and 80° C. […] 1. 2×1 mg of pure atropisomer was dissolved in 1 mL of ethanol in a sealed-dram vial. • 2. One set of vials was heated at 40° C. and another set at 80° C. • 3. At specified time-points a 20 μL aliquot from each stock solution (1 mL) was taken and quenched into a HPLC vial containing a 80 μL solution of hexane:ethanol; 80:20 to afford a final concentration of […] and the sample was analysed by chiral HPLC • 4. Analysis was carried out at the following time-points: 0 h, 24 h, 48 h, 72 h, 96 h and 240 h for the samples kept at 40° C. and 24 h, 96 h and 240 h for the samples kept at 80° C. using chiral HPLC method 5

[4] = 3 μM (3000 nM), lower = stronger binding, read-out: % Control

% ee of sample @ 40° C. ([3]; 0 h) [% ee] | % ee of sample @ 40° C. ([3]; 24 h) [% ee] | % ee of sample @ 40° C. ([3]; 48 h) [% ee] | % ee of sample @ 40° C. ([3]; 72 h) [% ee] | % ee of sample @ 40° C. ([3]; 96 h) [% ee] | % ee of sample @ 40° C. ([3]; 10 days) [% ee] | % ee sample @ 80° C. ([3]; 0 h) [% ee] | % ee sample @ 80° C. ([3]; 24 h) [% ee] | % ee sample @ 80° C. ([3]; 96 h) [% ee] | % ee sample @ 80° C. ([3]; 10 days) [% ee] | interconversion / racemization of atropisomers [3] | Compound | also measured
97.20 | 97.34 | 97.30 | 97.24 | 97.14 | 97.46 | 97.20 | 95.62 | 96.62 | 97.12 | no interconversion was observed | CN(C)CCNC(=O)c1ccc(-c2ccc(-c3ccc(Cl)cc3)n2-c2ccccc2C(F)(F)F)cc1 (single isomer, unassigned) [Atropisomer A-2] | IC50 ([1]; Homo sapiens, U-87 MG): 220 nM; IC50 (NCI-H1299; Homo sapiens): 370 nM; IC50 (OCI-LY-19; Homo sapiens, OCI-LY19): 220 nM; IC50 (AsPC-1; Homo sapiens, ASPC1): 2900 nM; IC50 (JeKo-1; Homo sapiens): 190 nM; IC50 (SU-DHL-6; Homo sapiens): 260 nM; IC50 (D283 Med; Homo sapiens): 310 nM; remaining binding at 3 µM (PLK4 (catalytic domain); [4]): 100%; % Ctrl @ 3 μM (PLK4 (catalytic domain); PLK4, screened at 3000 nM): 100 % Ctrl; remaining binding at 3 µM (PLK1 (catalytic domain); [4]): 97%; % Ctrl @ 3 μM (PLK1 (catalytic domain); PLK1, screened at 3000 nM): 97 % Ctrl; bioluminescent tumour signal, treated versus control [2]: a decrease in tumour signal
100 | 100 | 100 | 100 | 100 | 100 | 100 | 100 | 100 | 100 | no interconversion was observed | CN(C)CCNC(=O)c1ccc(-c2ccc(-c3ccc(Cl)cc3)n2-c2ccccc2C(F)(F)F)cc1 (single isomer, unassigned; atropisomer a) [Atropisomer A-1] | IC50 [1]: 4600 nM; IC50 (NCI-H1299): 8250 nM; IC50 (OCI-LY-19): 6670 nM; IC50 (AsPC-1): > 10000 nM; IC50 (JeKo-1): 7940 nM; IC50 (SU-DHL-6): 3980 nM; IC50 (D283 Med): 9260 nM
